We go through six compounds from the kinase profiling compilation of Christmann-Franck et al. (2016).

One may read the residual activity as the signal under treatment as a percentage of the control signal.

What all share (test): radiometric filter-binding kinase assay, Kinaseprofiler
The subject of assay [1] is MAPK9 (human), P45984 [S51N]. Conditions: ATP 45 µM.
The test system of assay [2] is DDR2 (human), Q16832 [S642A]. The conditions noted are these: ATP 200 µM.
Assay [3] relates to EPHB2 (human), P29323 [A848S/K918E]. The conditions noted are these: ATP 10 µM.
The next assay addresses CDK3 CCNE1 (human) (UniProt Q00526+P24864). The conditions noted are these: ATP 200 µM.
The target of the next assay is CDK2 CCNA2 (human) (UniProt P24941+P20248). Conditions: ATP 45 µM.
The target in another assay is CDK7 CCNH MNAT1 (human) (UniProt P50613+P51948+P51946). The conditions noted are these: compound 10.0 µM; ATP 90 µM.
The target in a further assay is CDK2 CCNE1 (human) (UniProt P24941+P24864). Conditions: ATP 120 µM.
Assay [4] addresses PRKAA2 PRKAB1 PRKAG1 (human) (UniProt P54619+P54646+Q9Y478). Conditions: ATP 45 µM.
The target in the next assay is MTOR FKBP1A (human) (UniProt P42345+P62942). Conditions: ATP 45 µM.

SMILES strings stand for the structures.

DDR2 (human), Q16832 [S642A], sequence (Q16832 whole entry, looked up, stated change not applied): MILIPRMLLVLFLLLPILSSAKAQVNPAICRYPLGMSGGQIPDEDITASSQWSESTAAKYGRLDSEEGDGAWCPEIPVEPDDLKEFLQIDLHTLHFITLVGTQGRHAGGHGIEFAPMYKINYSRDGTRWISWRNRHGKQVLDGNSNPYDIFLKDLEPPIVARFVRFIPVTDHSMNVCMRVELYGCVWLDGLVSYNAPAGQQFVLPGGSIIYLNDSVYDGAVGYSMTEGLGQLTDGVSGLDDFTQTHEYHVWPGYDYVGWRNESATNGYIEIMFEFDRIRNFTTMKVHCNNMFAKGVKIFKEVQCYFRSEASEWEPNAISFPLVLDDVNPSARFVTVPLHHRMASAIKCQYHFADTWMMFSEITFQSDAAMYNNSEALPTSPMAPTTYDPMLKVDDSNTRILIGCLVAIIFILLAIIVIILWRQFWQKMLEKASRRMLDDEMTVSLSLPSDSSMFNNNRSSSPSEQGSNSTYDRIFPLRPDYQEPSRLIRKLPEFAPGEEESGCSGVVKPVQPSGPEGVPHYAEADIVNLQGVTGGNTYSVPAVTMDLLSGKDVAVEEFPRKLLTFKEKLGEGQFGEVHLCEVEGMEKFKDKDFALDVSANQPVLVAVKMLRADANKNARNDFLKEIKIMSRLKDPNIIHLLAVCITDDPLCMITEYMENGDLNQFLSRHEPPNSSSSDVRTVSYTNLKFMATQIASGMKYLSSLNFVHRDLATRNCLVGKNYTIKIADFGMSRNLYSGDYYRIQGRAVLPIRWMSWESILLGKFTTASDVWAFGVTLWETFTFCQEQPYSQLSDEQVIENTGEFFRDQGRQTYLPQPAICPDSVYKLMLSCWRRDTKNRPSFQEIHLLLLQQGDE
CDK2 CCNE1 (human), sequence (P24864 whole entry, looked up, other chains not shown): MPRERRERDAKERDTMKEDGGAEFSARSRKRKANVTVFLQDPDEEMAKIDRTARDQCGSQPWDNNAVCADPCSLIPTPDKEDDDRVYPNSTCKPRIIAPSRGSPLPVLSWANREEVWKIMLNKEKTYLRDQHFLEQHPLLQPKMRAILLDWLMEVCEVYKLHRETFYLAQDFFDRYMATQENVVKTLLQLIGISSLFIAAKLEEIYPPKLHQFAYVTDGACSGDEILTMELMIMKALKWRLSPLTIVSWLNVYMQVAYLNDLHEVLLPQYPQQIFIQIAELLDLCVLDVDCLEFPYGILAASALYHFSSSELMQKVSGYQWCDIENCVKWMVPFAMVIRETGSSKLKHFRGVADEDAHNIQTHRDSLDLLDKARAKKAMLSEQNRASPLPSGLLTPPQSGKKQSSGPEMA
CDK3 CCNE1 (human), sequence (P24864 whole entry, looked up): as the sequence (P24864 whole entry, looked up, other chains not shown) above
CDK3 CCNE1 (human), sequence (Q00526 whole entry, looked up): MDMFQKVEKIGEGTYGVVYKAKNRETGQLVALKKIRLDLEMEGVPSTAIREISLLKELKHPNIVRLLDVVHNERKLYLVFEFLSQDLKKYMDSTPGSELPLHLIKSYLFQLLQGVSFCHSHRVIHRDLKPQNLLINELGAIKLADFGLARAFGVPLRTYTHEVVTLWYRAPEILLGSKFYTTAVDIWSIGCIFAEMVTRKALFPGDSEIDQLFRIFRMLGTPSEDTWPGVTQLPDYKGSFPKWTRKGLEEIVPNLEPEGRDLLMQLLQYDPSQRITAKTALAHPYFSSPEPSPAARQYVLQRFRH
CDK2 CCNA2 (human), sequence (P20248 whole entry, looked up, other chains not shown): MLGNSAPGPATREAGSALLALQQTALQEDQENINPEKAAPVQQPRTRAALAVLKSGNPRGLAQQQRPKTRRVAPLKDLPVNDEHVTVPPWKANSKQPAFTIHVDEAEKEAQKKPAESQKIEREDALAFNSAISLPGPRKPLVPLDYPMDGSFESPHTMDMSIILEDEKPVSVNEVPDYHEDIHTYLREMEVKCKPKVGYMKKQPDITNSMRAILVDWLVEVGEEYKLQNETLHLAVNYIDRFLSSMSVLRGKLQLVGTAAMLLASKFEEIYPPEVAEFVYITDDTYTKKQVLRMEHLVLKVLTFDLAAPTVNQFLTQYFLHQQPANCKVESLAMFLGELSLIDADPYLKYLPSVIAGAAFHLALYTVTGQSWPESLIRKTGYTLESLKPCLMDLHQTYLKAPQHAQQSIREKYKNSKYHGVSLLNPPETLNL
PRKAA2 PRKAB1 PRKAG1 (human), sequence (P54619 whole entry, looked up): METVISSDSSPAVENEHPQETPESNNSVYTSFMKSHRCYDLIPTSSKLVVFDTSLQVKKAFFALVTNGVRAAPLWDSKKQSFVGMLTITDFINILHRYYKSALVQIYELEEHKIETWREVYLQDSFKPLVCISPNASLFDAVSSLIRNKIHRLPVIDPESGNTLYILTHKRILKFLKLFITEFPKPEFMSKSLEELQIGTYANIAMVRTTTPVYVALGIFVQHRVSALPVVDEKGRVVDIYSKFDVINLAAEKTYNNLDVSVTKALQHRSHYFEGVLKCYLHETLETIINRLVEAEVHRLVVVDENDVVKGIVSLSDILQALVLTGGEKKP
PRKAA2 PRKAB1 PRKAG1 (human), sequence (P54646 whole entry, looked up): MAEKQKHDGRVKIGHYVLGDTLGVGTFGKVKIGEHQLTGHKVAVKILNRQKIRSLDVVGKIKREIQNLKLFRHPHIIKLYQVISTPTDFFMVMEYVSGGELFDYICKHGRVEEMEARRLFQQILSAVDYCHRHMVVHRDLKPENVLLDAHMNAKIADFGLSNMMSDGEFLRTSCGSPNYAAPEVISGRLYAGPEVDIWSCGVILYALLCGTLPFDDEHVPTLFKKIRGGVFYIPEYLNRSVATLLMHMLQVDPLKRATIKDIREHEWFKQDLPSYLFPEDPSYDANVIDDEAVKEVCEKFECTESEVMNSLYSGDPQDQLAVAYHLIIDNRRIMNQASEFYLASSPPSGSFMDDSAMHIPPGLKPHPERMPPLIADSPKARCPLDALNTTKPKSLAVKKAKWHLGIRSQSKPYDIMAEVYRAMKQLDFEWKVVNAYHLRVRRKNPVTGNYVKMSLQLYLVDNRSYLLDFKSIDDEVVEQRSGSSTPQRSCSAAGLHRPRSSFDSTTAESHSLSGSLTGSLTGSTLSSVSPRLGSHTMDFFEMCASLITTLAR
PRKAA2 PRKAB1 PRKAG1 (human), sequence (Q9Y478 whole entry, looked up): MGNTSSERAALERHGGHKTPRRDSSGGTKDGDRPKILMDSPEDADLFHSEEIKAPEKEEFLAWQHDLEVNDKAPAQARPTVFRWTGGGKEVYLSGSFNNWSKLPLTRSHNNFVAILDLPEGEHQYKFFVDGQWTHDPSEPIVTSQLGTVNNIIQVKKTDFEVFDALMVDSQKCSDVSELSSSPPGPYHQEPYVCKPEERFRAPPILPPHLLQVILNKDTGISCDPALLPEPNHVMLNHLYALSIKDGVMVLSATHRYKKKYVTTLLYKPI
MTOR FKBP1A (human), sequence (P62942 whole entry, looked up, other chains not shown): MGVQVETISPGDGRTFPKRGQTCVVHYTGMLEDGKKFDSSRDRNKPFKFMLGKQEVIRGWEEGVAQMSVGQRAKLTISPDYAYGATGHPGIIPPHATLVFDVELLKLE
CDK7 CCNH MNAT1 (human), sequence (P50613 whole entry, looked up): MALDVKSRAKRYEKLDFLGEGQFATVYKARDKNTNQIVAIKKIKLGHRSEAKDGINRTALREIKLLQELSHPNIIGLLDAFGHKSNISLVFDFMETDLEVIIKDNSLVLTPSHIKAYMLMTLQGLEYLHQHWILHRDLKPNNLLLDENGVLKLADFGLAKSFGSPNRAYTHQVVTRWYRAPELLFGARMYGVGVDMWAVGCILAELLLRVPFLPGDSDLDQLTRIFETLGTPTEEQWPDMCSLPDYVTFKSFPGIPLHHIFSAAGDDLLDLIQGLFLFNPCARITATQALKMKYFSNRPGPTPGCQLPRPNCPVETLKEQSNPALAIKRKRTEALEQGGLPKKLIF
CDK7 CCNH MNAT1 (human), sequence (P51946 whole entry, looked up): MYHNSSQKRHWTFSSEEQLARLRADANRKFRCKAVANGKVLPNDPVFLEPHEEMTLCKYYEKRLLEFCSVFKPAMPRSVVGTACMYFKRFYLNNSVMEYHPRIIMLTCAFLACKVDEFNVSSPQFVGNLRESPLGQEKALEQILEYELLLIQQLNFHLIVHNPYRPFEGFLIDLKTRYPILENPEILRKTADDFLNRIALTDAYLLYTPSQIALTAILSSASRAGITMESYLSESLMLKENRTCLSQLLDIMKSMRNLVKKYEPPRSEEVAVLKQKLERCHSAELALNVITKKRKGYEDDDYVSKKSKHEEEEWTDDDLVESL
CDK7 CCNH MNAT1 (human), sequence (P51948 whole entry, looked up): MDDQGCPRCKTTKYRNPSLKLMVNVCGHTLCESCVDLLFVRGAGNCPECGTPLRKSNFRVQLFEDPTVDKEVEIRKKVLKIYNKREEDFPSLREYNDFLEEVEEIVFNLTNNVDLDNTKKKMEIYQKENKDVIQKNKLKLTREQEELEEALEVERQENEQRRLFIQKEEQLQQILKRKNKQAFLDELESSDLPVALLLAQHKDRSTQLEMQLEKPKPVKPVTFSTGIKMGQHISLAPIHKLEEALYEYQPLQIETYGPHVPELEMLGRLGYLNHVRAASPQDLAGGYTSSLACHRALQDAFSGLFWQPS

On to `O=C1c2ccccc2-c2n[nH]c3cccc1c23`, for which the residual activity in assay [1] (compound 1.0 µM) is 26%; in [1] (compound 10.0 µM) it was -6%; in [2] (compound 1.0 µM), 93%; in assay [2] (compound 10.0 µM) it was 92%; in assay [3] (compound 1.0 µM), 101%; in [3] (compound 10.0 µM) it was 95%.
As for `CN[C@@H]1C[C@H]2O[C@@](C)([C@@H]1OC)n1c3ccccc3c3c4c(c5c6ccccc6n2c5c31)C(=O)NC4`, the residual activity in assay [1] (compound 1.0 µM) came to 52%.
In the case of `COC(=O)[C@]1(O)C[C@@H]2O[C@@]1(C)n1c3ccccc3c3c4c(c5c6ccccc6n2c5c31)C(=O)NC4`, the residual activity in assay [1] (compound 10.0 µM) is -11%.
Turning to `O=C(Nc1cccc(Nc2nccc(Nc3cccc(C(F)(F)F)c3)n2)c1)C1CC1`, in assay [2] (compound 10.0 µM), the residual activity came to 35%.
In the case of `CO[C@H]1[C@@H](OC)C[C@H](C)[C@@H](OC)C2=CC(=O)C=C(NC(=O)/C(C)=C\C=C/[C@H](OC)[C@@H](OC(N)=O)/C(C)=C\[C@@H]1C)C2=O`, the residual activity at CDK3 CCNE1 (human) (compound 1.0 µM) was 100%; on CDK3 CCNE1 (human) (compound 10.0 µM), 87%; at CDK2 CCNA2 (human) (compound 1.0 µM), 138%; on CDK2 CCNA2 (human) (compound 10.0 µM), 83%; on CDK7 CCNH MNAT1 (human), 101%; at CDK2 CCNE1 (human) (compound 1.0 µM), 104%. The residual activity on CDK2 CCNE1 (human) (compound 10.0 µM) came out at 91%; in [4] (compound 1.0 µM), 92%; in [4] (compound 10.0 µM) it was 78%; at MTOR FKBP1A (human) (compound 1.0 µM), 77%; on MTOR FKBP1A (human) (compound 10.0 µM), 89%.
For `O=C1Nc2ccccc2/C1=C1\Nc2ccccc2\C1=N/O`, the residual activity in [1] (compound 1.0 µM) is 55%; in [1] (compound 10.0 µM), 17%; in assay [2] (compound 1.0 µM), 94%; in assay [2] (compound 10.0 µM), 87%; in assay [3] (compound 1.0 µM), 91%; in [3] (compound 10.0 µM), 13%.
